Assay results: patent US20020137929A1, “1 - (3-heterocyclylphenyl) isothiourea, -isourea, -guanidine and -amidine herbicidal agents” (Intellectual Property Department, BASF Aktiengesellschaft, priority 1998, published 2002)

Tests used:
[1] = tested on: ECHCG (Barnyardgrass); assay: Preemergence herbicidal evaluation; type: in vivo, Echinochloa crus-galli; settings: rated 4-5 weeks after treatment; for ECHCG rating: preemergence, 0-9 scale
Summary of the method: (§1)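 In this greenhouse assay, monocot and dicot seeds are planted in soil and treated prior to emergence with an aqueous acetone spray (about 0.0156-0.500 kg/ha). Plants are assessed visually against control on a 0-9 scale after 4-5 weeks.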

[2] = tested on: ZEAMX (Corn, Field); assay: Preemergence herbicidal evaluation; type: in vivo, Zea mays; settings: rated 4-5 weeks after treatment; for ZEAMX rating: preemergence, 0-9 scale
Summary of the method: as §1

[3] = tested on: CASOB (Sicklepod); assay: Postemergence herbicidal evaluation; type: in vivo, Cassia obtusifolia; settings: postemergence
Summary of the method: (§2)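 Young plants, roughly two weeks from seeding, receive the active ingredient as a sprayed dispersion (acetone/water 50/50, 0.5% TWEEN 20) at 40 psi. Doses span about 0.0156 to 0.500 kg/ha. A visual score from 0 to 9 compares treated with control plants four to five weeks on.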

[4] = tested on: SAGPY (Arrowhead (Pygmaea)); assay: Preemergence weed control under flooded paddy conditions; type: in vivo, Sagittaria pygmaea; settings: rated 3-4 weeks after treatment
Summary of the method: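 Visual injury scored 0-9 against control three to four weeks post-treatment, greenhouse-grown. Application: acetone/water (50/50) solutions dosed directly into flood water (1.5-3 cm over silt loam, planted top 0.5 cm), roughly 0.0313 to 0.500 kg/ha active ingredient.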

[5] = tested on: ABUTH (Velvetleaf); assay: Preemergence herbicidal evaluation; type: in vivo, Abutilon theophrasti; settings: rated 4-5 weeks after treatment; for ABUTH rating: preemergence, 0-9 scale
Summary of the method: as §1

[6] = tested on: IPOHE (Morningglory, Ivyleaf); assay: Postemergence herbicidal evaluation; type: in vivo, Ipomoea hederacea; settings: postemergence
Summary of the method: as §2

[7] = tested on: CYPIR (Rice Flatsedge); assay: Postemergence weed control under flooded paddy conditions; type: in vivo, Cyperus iria; settings: postemergence weeds, rated 3 to 4 weeks after treatment
Summary of the method: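 Containers holding 3–5 cm weeds and rice at 1.5–2.5 leaves are flooded to 1.5–3 cm above soil. Compound in 50/50 v/v aqueous/acetone is then added directly to the water, about 0.0313–0.500 kg/ha. Plants are kept in the greenhouse and rated 0–9 visually at 3–4 weeks.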

[8] = tested on: TRZAWR (Wheat, Winter, cv Riband); assay: Preemergence herbicidal evaluation; type: in vivo, Triticum aestivum; settings: rated 4-5 weeks after treatment; for TRZAWR rating: preemergence, 0-9 scale
Summary of the method: as §1

[9] = tested on: GALAP (Galium); assay: Postemergence herbicidal evaluation; type: in vivo, Galium aparine; settings: postemergence
Summary of the method: as §2

[10] = tested on: AMBEL (Ragweed, Common); assay: Postemergence herbicidal evaluation; type: in vivo, Ambrosia artemisifolia; settings: postemergence
Summary of the method: as §2

[11] = tested on: CASOB (Sicklepod); assay: Preemergence herbicidal evaluation; type: in vivo, Cassia obtusifolia; settings: rated 4-5 weeks after treatment; for CASOB rating: preemergence, 0-9 scale
Summary of the method: as §1

[12] = tested on: IPOHE (Morningglory, Ivyleaf); assay: Preemergence herbicidal evaluation; type: in vivo, Ipomoea hederacea; settings: rated 4-5 weeks after treatment; for IPOHE rating: preemergence, 0-9 scale
Summary of the method: as §1

[13] = tested on: GLXMAW (Soybean, Williams); assay: Preemergence herbicidal evaluation; type: in vivo, Glycine max, (L.) Merr. cv Williams; settings: rated 4-5 weeks after treatment; for GLXMAW rating: preemergence, 0-9 scale
Summary of the method: as §1

Compound: COC(=O)C1(N2C(=O)CSC2=Nc2cc(-n3c(=O)cc(C(F)(F)F)n(C)c3=O)c(F)cc2Cl)CCCCC1 [Compound 81, Methyl 1-{2-{{2-chloro-5-[3,6-dihydro-3-methyl-2,6-dioxo-4-(trifluoromethyl)-1(2H)-pyrimidinyl]-4-fluorophenyl}imino}-4-oxo-3-thiazolidinyl}-cyclohexanecarboxylate]
- ECHCG rating ([1]; 0.0313 kg/ha): 0.0
- ECHCG rating ([1]; 0.0625 kg/ha): 0.0
- ECHCG rating ([1]; 0.1250 kg/ha): 0.0
- ECHCG rating ([1]; 0.2500 kg/ha): 1.0
- ZEAMX rating ([2]; 0.0313 kg/ha): 0.0
- ZEAMX rating ([2]; 0.0625 kg/ha): 2.0
- ZEAMX rating ([2]; 0.1250 kg/ha): 2.0
- ZEAMX rating ([2]; 0.2500 kg/ha): 2.0
- CASOB herbicidal rating ([3]; rate 0.0158 kg/ha): 1.0
- CASOB herbicidal rating ([3]; rate 0.0315 kg/ha): 2.0
- CASOB herbicidal rating ([3]; rate 0.0630 kg/ha): 5.0
- SAGPY herbicidal effect rating ([4]; 0.0625 kg/ha): 0.0
- SAGPY herbicidal effect rating ([4]; 0.1250 kg/ha): 0.0
- SAGPY herbicidal effect rating ([4]; 0.2500 kg/ha): 0.0
- ABUTH rating ([5]; 0.0313 kg/ha): 9.0
- ABUTH rating ([5]; 0.0625 kg/ha): 9.0
- ABUTH rating ([5]; 0.1250 kg/ha): 9.0
- ABUTH rating ([5]; 0.2500 kg/ha): 9.0
- IPOHE herbicidal rating ([6]; rate 0.0158 kg/ha): 9.0
- IPOHE herbicidal rating ([6]; rate 0.0315 kg/ha): 9.0
- IPOHE herbicidal rating ([6]; rate 0.0630 kg/ha): 9.0
- Herbicidal rating CYPIR ([7]; Rate 0.0625 kg/ha): 4.0
- Herbicidal rating CYPIR ([7]; Rate 0.1250 kg/ha): 5.0
- Herbicidal rating CYPIR ([7]; Rate 0.2500 kg/ha): 5.0
- TRZAWR rating ([8]; 0.0313 kg/ha): 0.0
- TRZAWR rating ([8]; 0.0625 kg/ha): 0.0
- TRZAWR rating ([8]; 0.1250 kg/ha): 1.0
- TRZAWR rating ([8]; 0.2500 kg/ha): 1.0
- GALAP herbicidal rating ([9]; rate 0.0158 kg/ha): 1.0
- GALAP herbicidal rating ([9]; rate 0.0315 kg/ha): 5.0
- GALAP herbicidal rating ([9]; rate 0.0630 kg/ha): 4.0
- AMBEL herbicidal rating ([10]; rate 0.0158 kg/ha): 9.0
- AMBEL herbicidal rating ([10]; rate 0.0315 kg/ha): 9.0
- AMBEL herbicidal rating ([10]; rate 0.0630 kg/ha): 9.0
- CASOB rating ([11]; 0.0313 kg/ha): 0.0
- CASOB rating ([11]; 0.1250 kg/ha): 0.0
- CASOB rating ([11]; 0.2500 kg/ha): 0.0
- IPOHE rating ([12]; 0.0313 kg/ha): 0.0
- IPOHE rating ([12]; 0.1250 kg/ha): 1.0
- IPOHE rating ([12]; 0.2500 kg/ha): 9.0
- GLXMAW rating ([13]; 0.0313 kg/ha): 0.0
- GLXMAW rating ([13]; 0.0625 kg/ha): 2.0
- GLXMAW rating ([13]; 0.1250 kg/ha): 1.0
- GLXMAW rating ([13]; 0.2500 kg/ha): 3.0

Compound: Cn1c(C(F)(F)F)cc(=O)n(-c2cc(N=C3SCC(=O)N3C3CCOC3=O)c(Cl)cc2F)c1=O (stereo not shown) [Compound 73]
- Preemergence herbicidal rating ECHCG ([1]; rate 0.0156 kg/ha): 0.0
- Preemergence herbicidal rating ECHCG ([1]; rate 0.0313 kg/ha): 0.0
- Preemergence herbicidal rating ECHCG ([1]; rate 0.0625 kg/ha): 0.0
- Preemergence herbicidal rating ECHCG ([1]; rate 0.1250 kg/ha): 0.0
- Preemergence herbicidal rating ECHCG ([1]; rate 0.2500 kg/ha): 4.0
- Preemergence herbicidal rating ZEAMX ([2]; rate 0.0156 kg/ha): 0.0
- Preemergence herbicidal rating ZEAMX ([2]; rate 0.0313 kg/ha): 0.0
- Preemergence herbicidal rating ZEAMX ([2]; rate 0.0625 kg/ha): 1.0
- Preemergence herbicidal rating ZEAMX ([2]; rate 0.1250 kg/ha): 4.0
- Preemergence herbicidal rating ZEAMX ([2]; rate 0.2500 kg/ha): 7.0
- CASOB herbicidal rating ([3]; rate 0.0158 kg/ha): 1.0
- CASOB herbicidal rating ([3]; rate 0.0315 kg/ha): 7.0
- CASOB herbicidal rating ([3]; rate 0.0630 kg/ha): 7.0
- SAGPY herbicidal effect rating ([4]; 0.1250 kg/ha): 3.0
- SAGPY herbicidal effect rating ([4]; 0.2500 kg/ha): 4.0
- Preemergence herbicidal rating ABUTH ([5]; rate 0.0156 kg/ha): 9.0
- Preemergence herbicidal rating ABUTH ([5]; rate 0.0313 kg/ha): 9.0
- Preemergence herbicidal rating ABUTH ([5]; rate 0.0625 kg/ha): 9.0
- Preemergence herbicidal rating ABUTH ([5]; rate 0.1250 kg/ha): 9.0
- Preemergence herbicidal rating ABUTH ([5]; rate 0.2500 kg/ha): 9.0
- IPOHE herbicidal rating ([6]; rate 0.0158 kg/ha): 9.0
- IPOHE herbicidal rating ([6]; rate 0.0315 kg/ha): 9.0
- IPOHE herbicidal rating ([6]; rate 0.0630 kg/ha): 9.0
- Herbicidal rating CYPIR ([7]; Rate 0.1250 kg/ha): 0.0
- Herbicidal rating CYPIR ([7]; Rate 0.2500 kg/ha): 6.0
- Preemergence herbicidal rating TRZAWR ([8]; rate 0.0156 kg/ha): 0.0
- Preemergence herbicidal rating TRZAWR ([8]; rate 0.0313 kg/ha): 0.0
- Preemergence herbicidal rating TRZAWR ([8]; rate 0.0625 kg/ha): 1.0
- Preemergence herbicidal rating TRZAWR ([8]; rate 0.1250 kg/ha): 3.0
- Preemergence herbicidal rating TRZAWR ([8]; rate 0.2500 kg/ha): 4.0
- GALAP herbicidal rating ([9]; rate 0.0158 kg/ha): 3.0
- GALAP herbicidal rating ([9]; rate 0.0315 kg/ha): 7.0
- GALAP herbicidal rating ([9]; rate 0.0630 kg/ha): 6.0
- AMBEL herbicidal rating ([10]; rate 0.0158 kg/ha): 9.0
- AMBEL herbicidal rating ([10]; rate 0.0315 kg/ha): 9.0
- AMBEL herbicidal rating ([10]; rate 0.0630 kg/ha): 9.0
- Preemergence herbicidal rating CASOB ([11]; rate 0.0313 kg/ha): 0.0
- Preemergence herbicidal rating CASOB ([11]; rate 0.0625 kg/ha): 0.0
- Preemergence herbicidal rating CASOB ([11]; rate 0.1250 kg/ha): 1.0
- Preemergence herbicidal rating CASOB ([11]; rate 0.2500 kg/ha): 2.0
- Preemergence herbicidal rating IPOHE ([12]; rate 0.0156 kg/ha): 0.0
- Preemergence herbicidal rating IPOHE ([12]; rate 0.0313 kg/ha): 1.0
- Preemergence herbicidal rating IPOHE ([12]; rate 0.0625 kg/ha): 0.0
- Preemergence herbicidal rating IPOHE ([12]; rate 0.1250 kg/ha): 1.0
- Preemergence herbicidal rating IPOHE ([12]; rate 0.2500 kg/ha): 7.0
- Preemergence herbicidal rating GLXMAW ([13]; rate 0.0156 kg/ha): 0.0
- Preemergence herbicidal rating GLXMAW ([13]; rate 0.0313 kg/ha): 1.0
- Preemergence herbicidal rating GLXMAW ([13]; rate 0.0625 kg/ha): 1.0
- Preemergence herbicidal rating GLXMAW ([13]; rate 0.1250 kg/ha): 1.0
- Preemergence herbicidal rating GLXMAW ([13]; rate 0.2500 kg/ha): 9.0
